Measurements: publication PMC6494831, “Drug-like Fragments Inhibit agr-Mediated Virulence Expression in Staphylococcus aureus” (Scientific Reports, 2019)
Read-outs that look alike come from different tables or passages of the source.

Target: AgrA (Staphylococcus aureus, UniProt P0A0I7)
Experiment: ITC with purified AgrAC, one-site fit, N fixed to […]
Type: binding

Chain of AgrA (P0A0I7 137-238): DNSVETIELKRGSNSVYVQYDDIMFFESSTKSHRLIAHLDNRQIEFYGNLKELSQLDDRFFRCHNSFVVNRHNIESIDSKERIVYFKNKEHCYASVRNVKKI

Structure (SMILES): Cc1ccc(-c2nc(C(=O)O)cs2)cc1 [compound 2, 2-(4-methylphenyl)-1,3-thiazole-4-carboxylic acid]
- Kd: 417 ± 62.9 µM

Structure (SMILES): Cc1cc(O)cc(C)c1C#N [compound 3, 4-hydroxy-2,6-dimethylbenzonitrile]
- Kd (read-out: Kd): 110 ± 45.6 µM

Structure (SMILES): O=C(O)C1c2ccccc2Oc2ccccc21 [compound 1, 9H-xanthene-9-carboxylic acid]
- Kd: 485 ± 39.3 µM
